Data from the OPERA property sets (Mansouri et al. 2018).
Values after ≈ are worked out from the molar mass of the structure shown.

Conditions: not given

Row | Compound | logP | solubility [mM]
1 | Cc1ccc(C(=O)CS(=O)(=O)c2ccccc2)cc1 | 2.7 | –
2 | CC(=O)Nc1ccc(C(=O)O)c(O)c1 | 1.62 | –
3 | O=C(O)C(=O)Nc1nc(-c2ccc3c(c2)OCCO3)cs1 | 1.8 | –
4 | Cc1cccc2[nH]ccc12 | 2.54 | –
5 | Clc1ccc(Cl)c(-c2ccccc2Cl)c1 | 5.48 | –
6 | NC(=O)c1ccccc1NCC(O)CO (centres undefined) | -0.8 | –
7 | O=[N+]([O-])c1ccc2nc[nH]c2c1 | 1.5 | –
8 | COc1ccc(C#N)cc1 | 1.7 | –
9 | O=C([O-])c1ccccc1.[Na+] | – | 3860
10 | COCC(C)OC(C)=O (centres undefined) | 0.56 | –
11 | Cc1cn(C2CC(O)C(CN)O2)c(=O)[nH]c1=O (centres undefined) | -2.05 | –
12 | N#CCCCCCCC#N | 0.59 | –
13 | [O-][n+]1ccc(Cl)c2ccc(Cl)cc21 | 1.85 | –
14 | NC(=O)CN1CCCC1=O | -1.54 | –
15 | OCc1c2ccccc2cc2ccccc12 | 3.04 | –
16 | Clc1ccc2c(ccc3ccccc32)c1 | 5.16 | –
17 | CN1CC=C(c2ccncc2)CC1 | 1.25 | –
18 | BrCBr | 1.7 | –
19 | CCCCCCCCOC(=O)c1ccccc1C(=O)OCCCCCCCC | 8.1 | –
20 | CCCCCCCCCCOC(=O)c1ccccc1C(=O)OCCCCCCCCCC | 9.05 | –
21 | CC(C)COCCO | 0.75 | –

Same assay, conditions: 20 °C

Row | Compound | solubility [mM]
22 | CCC(=O)c1ccccc1 | 14.9 (≈ 2000 µg/mL)
23 | CC(C)OC(=O)c1ccccc1C(=O)OC(C)C | 1.33 (≈ 332 µg/mL)
24 | CCOP(=S)(OCC)Oc1nc(Cl)n(C(C)C)n1 | 0.324 (≈ 102 µg/mL)
25 | CCNc1nc(NC(C)C)nc(OC)n1 | 8.52 (≈ 1800 µg/mL)
26 | COc1cc(C(Cl)(Cl)Cl)cc(Cl)n1 | 0.0433 (≈ 11.3 µg/mL)
27 | C=Cc1ccccn1 | 262 (≈ 27500 µg/mL)
28 | CCOC(=O)C(O)(c1ccc(Cl)cc1)c1ccc(Cl)cc1 | 0.0351 (≈ 11.4 µg/mL)
29 | CN(C)c1ccncc1 | 622 (≈ 76000 µg/mL)
30 | O=C(O)c1ccccn1 | 7800 (≈ 960000 µg/mL)

Same assay, conditions: 23.0 °C

Row | Compound | log10 OH rate constant (cm³/molecule/s)
31 | CCC(C)(O)CC(C)C (centres undefined) | -10.9
32 | CC(=O)CC(C)(C)O | -11.4
33 | O=C1C=CC(=O)O1 | -11.8

Same assay, conditions: 24 °C

Row | Compound | solubility [mM]
34 | CCCN(CCC)N=O | 99.9 (≈ 13000 µg/mL)

Same assay, conditions: 24.0 °C

Row | Compound | log10 OH rate constant (cm³/molecule/s)
35 | C[Si](C)(C)O[Si](C)(C)C | -11.9

Same assay, conditions: 25 °C

Row | Compound | solubility [mM]
36 | CCOC(=O)[C@H](CCc1ccccc1)N[C@@H](C)C(=O)N1CCC[C@H]1C(=O)O | 43.6 (≈ 16400 µg/mL)
37 | Oc1ccc(N=Nc2ccc(N=Nc3ccccc3)c3ccccc23)cc1 | 0.000979 (≈ 0.345 µg/mL)
38 | Cc1ccc(C)cc1 | 1.53 (≈ 162 µg/mL)
39 | CCN(CCO)c1ccccc1 | 12.1 (≈ 2000 µg/mL)
40 | O=C(O)CC1CCCCC1 | 20.3 (≈ 2880 µg/mL)
41 | Clc1ccc2ccccc2c1 | 0.0719 (≈ 11.7 µg/mL)
42 | Oc1ccc(Cl)c(Cl)c1 | 56.8 (≈ 9260 µg/mL)
43 | ClCc1ccccc1 | 4.15 (≈ 525 µg/mL)
44 | Cc1cccc(C)c1 | 1.52 (≈ 161 µg/mL)
45 | COc1c(O)c(Cl)c(Cl)c(Cl)c1Cl | 0.016 (≈ 4.2 µg/mL)
46 | O=C(O)c1cccc(C(=O)O)c1 | 0.602 (≈ 100 µg/mL)
47 | COc1ccc(C(c2ccc(OC)cc2)C(Cl)(Cl)Cl)cc1 | 0.000289 (≈ 0.1 µg/mL)
48 | C[Si](C)(C)O[Si](C)(C)C | 0.00573 (≈ 0.93 µg/mL)
49 | Brc1cc(Br)c(Br)cc1Br | 0.000102 (≈ 0.04 µg/mL)
50 | ClCOCCl | 191 (≈ 22000 µg/mL)
51 | CCOP(=S)(OCC)SCSC(C)(C)C | 0.0176 (≈ 5.07 µg/mL)
52 | O=[N+]([O-])c1ccc2ccccc2c1 | 0.0534 (≈ 9.24 µg/mL)
53 | Clc1ccc(Cl)c(-c2ccccc2Cl)c1 | 0.00155 (≈ 0.4 µg/mL)
54 | O=C(O)Cc1ccc(O)cc1 | 399 (≈ 60700 µg/mL)
55 | COCC(C)OC(C)=O (centres undefined) | 1500 (≈ 198000 µg/mL)
56 | CCCCCCCCOP(=O)(Oc1ccccc1)Oc1ccccc1 | 0.000386 (≈ 0.14 µg/mL)
57 | CC1(C)[C@H]2CC[C@](C)(C2)[C@H]1O | 5.37 (≈ 828 µg/mL)
58 | Nc1ccc2cc3ccccc3cc2c1 | 0.00673 (≈ 1.3 µg/mL)
59 | CCCCC(=O)O[C@]1(C(=O)CO)[C@@H](C)C[C@H]2[C@@H]3CCC4=CC(=O)C=C[C@]4(C)[C@@]3(F)[C@@H](O)C[C@@]21C | 0.0195 (≈ 9.29 µg/mL)
60 | CCCCCCCCOC(=O)c1ccccc1C(=O)OCCCCCCCC | 5.63e-05 (≈ 0.022 µg/mL)

Same assay, conditions: 25.0 °C

Row | Compound | log10 OH rate constant (cm³/molecule/s)
61 | c1ccc2[nH]ccc2c1 | -9.81
62 | C=C(C)C(CC=O)CCC(C)=O (centres undefined) | -9.96
63 | COC(F)(F)C(F)(F)F | -13.9
64 | FCOC(C(F)(F)F)C(F)(F)F | -13.1
65 | CC12CCC(CC1)C(C)(C)O2 | -11
66 | FC(F)OC(C(F)(F)F)C(F)(F)F | -13.1
67 | O=CC(F)(Cl)Cl | -11.9
68 | C=Cc1ccccn1 | -10.2
69 | CC(C)c1ccc(NC(=O)N(C)C)cc1 | -10.9
70 | OC(C(F)(F)F)C(F)(F)F | -13.6
71 | O=C/C=C/C=O | -10.4
72 | BrCBr | -12.9

Same assay, conditions: 27.0 °C

Row | Compound | log10 OH rate constant (cm³/molecule/s)
73 | Oc1ccccc1O | -9.98
74 | Cc1ccc(O)c(O)c1 | -9.81
75 | CCC(=O)N(C)C | -10.7
76 | Cc1ccc(C)o1 | -9.88
77 | Cc1ccc(C=O)o1 | -10.3

Same assay, conditions: 30 °C

Row | Compound | solubility [mM]
78 | ClC(Cl)c1ccccc1 | 1.55 (≈ 250 µg/mL)
79 | BrCBr | 68.5 (≈ 11900 µg/mL)
